Test results published in patent US10324085B2, “Systems and methods for the monitoring of protein complex formation in cells” (priority 2013, dated 2019).
“And” between values parts separate entries of the source, which are not always exact repeats. Equal values may be shown once. Read-outs that look alike come from different tables or passages of the source. Blank lines part the entries; values can stand above or below the compound they belong to.

Legend:
[1] = target: T1, RXRγ-RARα-CoRNBox complex (Homo sapiens, UniProt P10276); test: BRETFect RXRγ-RARα-CoRNBox ternary complex in HEK293 cells; assay type: cell-based; settings: 1 μM, 40 min
T1 construct: expressed in transfected cells; host or cells: HEK293
T1 sequence (P10276 1-462): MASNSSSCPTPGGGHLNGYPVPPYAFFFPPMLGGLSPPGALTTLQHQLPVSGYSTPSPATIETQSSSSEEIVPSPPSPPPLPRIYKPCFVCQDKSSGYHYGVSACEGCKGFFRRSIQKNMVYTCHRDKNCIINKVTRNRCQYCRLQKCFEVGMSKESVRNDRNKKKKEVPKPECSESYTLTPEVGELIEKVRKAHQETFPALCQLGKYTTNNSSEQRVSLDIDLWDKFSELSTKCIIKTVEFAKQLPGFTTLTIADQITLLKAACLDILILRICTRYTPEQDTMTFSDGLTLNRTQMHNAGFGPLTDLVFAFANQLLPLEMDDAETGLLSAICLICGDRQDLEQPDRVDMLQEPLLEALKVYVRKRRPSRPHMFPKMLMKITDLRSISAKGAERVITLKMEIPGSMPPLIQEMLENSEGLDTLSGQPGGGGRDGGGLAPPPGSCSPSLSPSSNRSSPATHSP
T1 sequence (P48443 1-463 partner): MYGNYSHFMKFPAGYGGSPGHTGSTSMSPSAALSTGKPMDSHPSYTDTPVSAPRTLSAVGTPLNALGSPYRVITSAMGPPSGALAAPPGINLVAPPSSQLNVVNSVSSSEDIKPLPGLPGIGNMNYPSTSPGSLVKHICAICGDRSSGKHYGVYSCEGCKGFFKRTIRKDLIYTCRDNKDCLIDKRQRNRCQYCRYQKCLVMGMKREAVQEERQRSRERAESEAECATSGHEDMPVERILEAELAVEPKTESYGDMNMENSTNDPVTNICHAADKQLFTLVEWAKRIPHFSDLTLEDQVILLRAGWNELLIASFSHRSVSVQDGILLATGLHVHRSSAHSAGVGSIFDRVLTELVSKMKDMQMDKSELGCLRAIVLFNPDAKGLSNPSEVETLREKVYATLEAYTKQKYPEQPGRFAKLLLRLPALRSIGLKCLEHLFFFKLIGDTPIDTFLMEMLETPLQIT

[2] = target: T2, ERα-ERα (Homo sapiens, UniProt P03372); test: cell-based
T2 construct: expressed in transfected cells; host or cells: HEK293
Target sequence in this assay (P03372 whole entry): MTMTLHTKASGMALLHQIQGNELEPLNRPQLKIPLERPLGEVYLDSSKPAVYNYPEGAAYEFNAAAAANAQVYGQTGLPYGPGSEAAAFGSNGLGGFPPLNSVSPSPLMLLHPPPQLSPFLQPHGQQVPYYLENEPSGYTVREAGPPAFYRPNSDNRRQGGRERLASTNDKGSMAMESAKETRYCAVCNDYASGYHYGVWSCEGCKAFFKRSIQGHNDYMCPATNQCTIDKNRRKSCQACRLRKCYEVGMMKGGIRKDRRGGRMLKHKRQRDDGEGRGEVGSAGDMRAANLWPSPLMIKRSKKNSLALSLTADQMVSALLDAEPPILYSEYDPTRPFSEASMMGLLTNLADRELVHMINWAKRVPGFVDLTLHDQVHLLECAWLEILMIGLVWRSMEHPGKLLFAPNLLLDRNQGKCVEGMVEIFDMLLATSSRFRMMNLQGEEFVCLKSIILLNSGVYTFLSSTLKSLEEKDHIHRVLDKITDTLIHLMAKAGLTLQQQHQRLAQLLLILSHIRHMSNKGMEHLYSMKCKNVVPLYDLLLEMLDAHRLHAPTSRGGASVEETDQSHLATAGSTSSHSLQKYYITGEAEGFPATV

[3] = target: T3, ERα-ERβ (Homo sapiens, UniProt P03372+Q92731); test: cell-based; settings: BRETFect titration curves, HEK293 cells, average of three biological replicates; read-out: EC50 (nM), recruitment of SRC1-RID, ERα-ERβ
T3 construct: expressed in transfected cells; host or cells: HEK293
Target sequence in this assay (Q15788 626-753): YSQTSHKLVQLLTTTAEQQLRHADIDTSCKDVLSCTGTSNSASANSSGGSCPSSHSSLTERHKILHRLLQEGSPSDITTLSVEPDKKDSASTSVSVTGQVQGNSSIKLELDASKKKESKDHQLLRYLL
Target sequence in this assay (P03372 whole entry): as the sequence (P03372 whole entry) above
Target sequence in this assay (Q92731 whole entry): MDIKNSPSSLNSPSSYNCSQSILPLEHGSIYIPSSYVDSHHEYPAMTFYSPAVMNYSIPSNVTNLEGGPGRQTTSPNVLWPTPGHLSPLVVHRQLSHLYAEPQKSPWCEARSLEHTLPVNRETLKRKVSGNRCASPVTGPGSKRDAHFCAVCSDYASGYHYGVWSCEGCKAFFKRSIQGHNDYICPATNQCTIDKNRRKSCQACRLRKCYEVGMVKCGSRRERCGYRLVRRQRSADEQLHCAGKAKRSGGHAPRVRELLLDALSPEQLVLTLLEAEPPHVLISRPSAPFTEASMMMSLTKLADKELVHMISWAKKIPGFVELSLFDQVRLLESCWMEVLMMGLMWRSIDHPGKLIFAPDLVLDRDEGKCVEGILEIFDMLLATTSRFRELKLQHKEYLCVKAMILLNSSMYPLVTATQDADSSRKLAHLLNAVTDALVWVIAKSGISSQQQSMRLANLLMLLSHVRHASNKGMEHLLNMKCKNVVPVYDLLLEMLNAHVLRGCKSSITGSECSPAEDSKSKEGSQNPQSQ

[4] = target: T2, ERα-ERα; test: cell-based; settings: BRETFect titration curves, HEK293 cells, average of three biological replicates; read-out: EC50 (nM), recruitment of SRC1-RID, ERα-ERα
Target sequence in this assay (P03372 whole entry): as the sequence (P03372 whole entry) above
Target sequence in this assay (Q15788 626-753, further chain): as the sequence (Q15788 626-753) above

[5] = target: T3, ERα-ERβ; test: cell-based
Target sequence in this assay (Q92731 whole entry): as the sequence (Q92731 whole entry) above
Target sequence in this assay (P03372 whole entry): as the sequence (P03372 whole entry) above
Target sequence in this assay (as listed by the source): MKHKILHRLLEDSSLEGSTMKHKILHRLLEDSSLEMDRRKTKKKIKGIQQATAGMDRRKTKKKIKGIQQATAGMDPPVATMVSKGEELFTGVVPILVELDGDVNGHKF

[6] = target: ERβ (Homo sapiens, UniProt Q92731)
Sequence of ERβ (Q92731 whole entry, species assumed): as the sequence (Q92731 whole entry) above

Compound: CC1=C(/C=C/C(C)=C/C=C/C(C)=C/C(=O)O)C(C)(C)CCC1 [ATRA, all-trans retinoic acid]
RXRγ-RARα-CoRNBox ternary complex, net BRET [1]: the ternary complex is disassembled

Compound: 4-hydroxytamoxifen [OHT]
BRETFect signal (delta BRET), coactivator motif recruitment to ERα dimers [2]: suppresses coactivator motif recruitment

Compound: CCCc1c(-c2ccc(O)cc2)nn(-c2ccc(O)cc2)c1-c1ccc(O)cc1 [PPT, propylpyrazole triol]
EC50 ([2]; BRETFect titration curves, HEK293 cells, average of three biological replicates, read-out: EC50 (nM), recruitment of the coactivator motif peptide, ERα-ERα): 0.5 nM and 0.547 nM | EC50 [3]: 25.1 nM | EC50 [4]: 0.968 nM | EC50 ([5]; BRETFect titration curves, HEK293 cells, average of three biological replicates, read-out: EC50 (nM), recruitment of the coactivator motif peptide, ERα-ERβ): 28 nM and 28.4 nM | % of the BRETmax for CoApep recruitment by ERα-ERβ heterodimer ([5]; relative to BRETmax observed with E2): 50%

recruitment of CoApep-Venus to ERβ, BRET [6]: E2-induced
Compound: C[C@]12CC[C@@H]3c4ccc(O)cc4CC[C@H]3[C@@H]1CC[C@@H]2O [E2, 17-beta-Estradiol]
